In paper PMC11555501 (ACS Pharmacology & Translational Science, 2024):
Non-standard residues stand in square brackets, D forms with d. Residues, ends and D or L forms follow the SMILES beside them. *: point of attachment. X1 = CN(C)c1ccc2c(c1)Oc1cc(N(C)C)ccc1C21OC(=O)c2ccc(C(=O)*)cc21; Bip = N[C@@H](Cc1ccc(-c2ccccc2)cc1)C(=O)O; Lauroyl = CCCCCCCCCCCC(=O)*

Columns and labels:
[1] = Stability of Tam-labeled peptides in HEK-293 cell culture supernatant; format: in vitro ADME; details: for half-life at 10 μM: DMEM with 15% FBS on HEK-293 cells
Experimental: The cells were grown under standard conditions. […] The medium was replaced with the peptide solutions.

[2] = Stability of Tam-labeled peptides in human blood plasma (RP-HPLC fluorescence, MALDI-ToF-MS); details: for half-life at 10 μM / remaining at 72 h, 10 μM: human
Experimental: (§1) Peptide solutions were diluted as described above and incubated at 37 °C. Samples were precipitated in 2× ACN/EtOH (1:1, v/v) at −20 °C overnight and filtered through Costar Spin-X tubes. The solutions of Tam-labeled peptides diluted with H2O (1:1, v/v) were analyzed by RP-HPLC using a linear gradient of eluent B (0.1% TFA in H2O) in eluent A (0.08% TFA in ACN) over 40 min at 40 °C on a VariTide RPC column (250 mm × 4.6 mm, 200 Å, 6 μm, flow rate 1 mL/min, Agilent Technologies). The relative amount of intact peptide was determined by fluorescence intensity (extinction 525 nm, emission 572 nm). Half-life was calculated by one-phase decay in Prism 10. Furthermore, eluting peptides were collected, lyophilized, and analyzed by MALDI-ToF-MS.

[3] = Stability of Tam-labeled peptides in Calu-3 cell culture supernatant
Experimental: as §1
HEK-293 cells were cultivated under standard conditions in Dulbecco’s modified Eagle’s medium (DMEM, Biowest)/Ham’s F12 (Biowest, 1:1, v/v) with 15% fetal bovine serum (FBS, Sigma-Aldrich). HEK-293 cells were detached with trypsin/ethylenediaminetetraacetic acid (Lonza) and seeded in a poly-D-lysine hydrobromide (Merck, 0.1 mg/mL)-coated 96-well cell culture microplate (Greiner Bio-One, 100,000 cells/well). The cells were grown under standard conditions. […] Cell differentiation was supported by culturing cells on an air–liquid interface for 10–14 days and monitored by measurement of transepithelial electrical resistance. […]

[4] = human blood plasma/DPBS (1:1); details: 37 °C, up to 72 h
[5] = HEK-293 supernatant (phenol red-free DMEM with 15% FBS); details: up to 72 h

CCCCCCCC(=O)NC[C@H](NC(=O)[C@H](CO)NC(=O)CN)C(=O)N[C@@H](Cc1ccccc1)C(=O)N[C@@H](CC(C)C)C(=O)N[C@@H](CO)C(=O)N1CCC[C@H]1C(=O)N[C@@H](CCC(=O)O)C(=O)N[C@@H](Cc1c[nH]cn1)C(=O)N[C@@H](CCC(N)=O)C(=O)N[C@@H](CCCNC(=N)N)C(=O)N[C@H](C(=O)N[C@@H](CCC(N)=O)C(=O)N[C@@H](CCC(N)=O)C(=O)N[C@@H](CCCNC(=N)N)C(=O)N[C@@H](CCCCNC(=O)c1ccc2c(c1)C1(OC2=O)c2ccc(N(C)C)cc2Oc2cc(N(C)C)ccc21)C(=O)N[C@@H](CCC(=O)O)C(=O)N[C@@H](CO)C(=O)N[C@@H](CCCCN)C(=O)N[C@@H](CCCCN)C(=O)N1CCC[C@H]1C(=O)N1CCC[C@H]1C(=O)N[C@@H](C)C(=O)N[C@@H](CCCCN)C(=O)N[C@@H](CC(C)C)C(=O)N[C@@H](CCC(N)=O)C(=O)N1CCC[C@H]1C(=O)N[C@@H](CCCNC(=N)N)C(=O)O)C(C)C [peptide 3, [Dpr^3,K^16(Tam)]-Ghr]
half-life at 10 μM ([1]; human, 10 μM peptide): 3430 min
half-life at 10 μM ([2]; human blood plasma diluted with DPBS (1:1), blood plasma half-life, human blood plasma/DPBS (1:1), 10 μM peptide, 37 °C, one-phase decay): 2.1 days
half-life at 10 μM ([2]; human blood plasma diluted with DPBS (1:1), donor plasma 3, half-life in plasma 3, donor comparison, plasma 3, plasma/DPBS (1:1), 10 μM, 37 °C): 2.39 days

CCCCCCCCCCCC(=O)NCCCC[C@H](N)C(=O)N[C@H](C(=O)N[C@@H](CC(N)=O)C(=O)N1CCC[C@H]1C(=O)N[C@@H](CCCCNC(=O)c1ccc2c(c1)C1(OC2=O)c2ccc(N(C)C)cc2Oc2cc(N(C)C)ccc21)C(=O)N[C@@H](Cc1ccc(-c2ccccc2)cc1)C(=O)N[C@@H](CCCNC(=N)N)C(=O)N[C@@H](CC(C)C)C(=O)N[C@@H](CCCNC(=N)N)C(=O)N[C@@H](Cc1ccc(O)cc1)C(N)=O)[C@@H](C)CC [peptide 2, [K^27(Lau),K^31(Tam)]-sNPY(27–36)] (H-K(Lauroyl)INPK(X1)[Bip]RLRY-NH2; N-terminus assumed)
half-life at 10 μM ([1]; human, 10 μM peptide): 1400 min
stability in Calu-3 supernatant compared to HEK-293 supernatant [3]: only slightly lower
half-life at 10 μM ([2]; plasma): 0.133 days
remaining at 72 h, 10 μM ([2]; plasma): 3%

GS-Dpr(Oct)-FLSPEHQRVQQRK(Tam)ESKK(Odd)PPAKLQPR
not cleaved [4]: around 90% intact peptide after 72 h
not cleaved [5]: degradation of less than 10% over 72 h

CCCCCCCC(=O)NC[C@H](NC(=O)[C@H](CO)NC(=O)CN)C(=O)N[C@@H](Cc1ccccc1)C(=O)N[C@@H](CC(C)C)C(=O)N[C@@H](CO)C(=O)N1CCC[C@H]1C(=O)N[C@@H](CCC(=O)O)C(=O)N[C@@H](Cc1c[nH]cn1)C(=O)N[C@@H](CCC(N)=O)C(=O)N[C@@H](CCCNC(=N)N)C(=O)N[C@H](C(=O)N[C@@H](CCC(N)=O)C(=O)N[C@@H](CCC(N)=O)C(=O)N[C@@H](CCCNC(=N)N)C(=O)N[C@@H](CCCCNC(=O)c1ccc2c(c1)C1(OC2=O)c2ccc(N(C)C)cc2Oc2cc(N(C)C)ccc21)C(=O)N[C@@H](CCC(=O)O)C(=O)N[C@@H](CO)C(=O)N[C@@H](CCCCN)C(=O)N[C@@H](CCCCNC(=O)CCCCCCCCCCCCCCCCC(=O)O)C(=O)N1CCC[C@H]1C(=O)N1CCC[C@H]1C(=O)N[C@@H](C)C(=O)N[C@@H](CCCCN)C(=O)N[C@@H](CC(C)C)C(=O)N[C@@H](CCC(N)=O)C(=O)N1CCC[C@H]1C(=O)N[C@@H](CCCNC(=N)N)C(=O)O)C(C)C [peptide 4, [Dpr^3,K^16(Tam),K^20(Odd)]-Ghr]
cleavage products detected by MALDI-ToF MS, HEK-293 supernatant ([1]; HPLC eluents): no cleavage was observed
metabolised at 72 h, 10 μM ([1]; human, HEK-293 cell culture supernatant, 10 μM peptide, DMEM with 15% FBS, 72 h, read-out: degradation over 72 h in HEK-293 supernatant): < 10%
cleavage products detected by MALDI-ToF MS, Calu-3 supernatant ([3]; HPLC eluents): strong C- and N-terminal truncation
cleavage products detected by MALDI-ToF MS, blood plasma ([2]; HPLC eluents): no cleavage was observed
remaining at 72 h, 10 μM ([2]; human blood plasma): ~90%
